Source: patent US20210177814A1, “USE OF GUANABENZ OR DERIVATES THEREOF FOR THE TREATMENT OF TYPE I IFN-DEPENDENT PATHOLOGIES” (INSERM (Institut National de la Santé et de la Recherche …, priority 2018, published 2021)

Molecular target: T1, hTLR3 (Homo sapiens, UniProt O15455)
T1 construct: expressed in transfected cells; host or cells: HEK-Blue (HEK 293) hTLR3 reporter cells
T1 sequence (O15455 24-904): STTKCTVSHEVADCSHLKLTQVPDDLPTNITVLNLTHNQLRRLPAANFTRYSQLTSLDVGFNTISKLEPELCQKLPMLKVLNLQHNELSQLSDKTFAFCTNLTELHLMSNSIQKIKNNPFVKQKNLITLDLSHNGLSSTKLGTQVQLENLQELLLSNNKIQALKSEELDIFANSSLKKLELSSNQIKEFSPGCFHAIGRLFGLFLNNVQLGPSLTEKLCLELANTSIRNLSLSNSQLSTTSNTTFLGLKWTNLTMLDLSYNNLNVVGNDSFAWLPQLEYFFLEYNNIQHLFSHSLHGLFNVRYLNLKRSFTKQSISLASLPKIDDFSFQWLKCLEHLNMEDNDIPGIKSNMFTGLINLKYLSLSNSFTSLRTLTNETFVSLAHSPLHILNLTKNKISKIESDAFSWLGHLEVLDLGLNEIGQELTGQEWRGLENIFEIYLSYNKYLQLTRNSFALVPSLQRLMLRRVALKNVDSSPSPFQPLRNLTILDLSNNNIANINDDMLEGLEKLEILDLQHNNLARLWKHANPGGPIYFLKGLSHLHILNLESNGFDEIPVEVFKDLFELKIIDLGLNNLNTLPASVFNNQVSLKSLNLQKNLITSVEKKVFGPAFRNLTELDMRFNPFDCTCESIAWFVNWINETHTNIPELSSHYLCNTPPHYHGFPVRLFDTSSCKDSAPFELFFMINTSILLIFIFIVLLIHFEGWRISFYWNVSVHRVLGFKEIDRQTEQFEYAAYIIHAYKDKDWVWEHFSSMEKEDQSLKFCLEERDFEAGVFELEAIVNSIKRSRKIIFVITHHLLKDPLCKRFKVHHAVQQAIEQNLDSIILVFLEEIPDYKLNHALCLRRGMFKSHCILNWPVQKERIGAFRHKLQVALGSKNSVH
Assay: HEK-Blue hTLR3 SEAP reporter assay
Type: cell-based
Settings: 10 μg/mL poly I:C LMW, GBZ 50 μM
Description: FIG. 1: Guanabenz inhibits TLR3 and TLR9 activation in mouse Flt3-L DCs and human blood pDCs. A) Sorted bone marrow derived Flt3L-DCs were activated for 6 h with 10 μg/mL poly I:C LMW (TLR3 in DC1) or 1 μM ODN 1585 (TLR9 in pDCs). GBZ was added at 50 μM and inhibited IFN-β and Interleukin-6 (IL-6) production in activated cells. B) hTLR4, hTLR3, hTLR9 and hTLR7 expressed in the reporter HEK-Blue™ cells are inhibited by GBZ. TLR-expressing HEK-Blue™ cells were respectively activated with 100 ng/mL LPS, 10 μg/mL poly I:C LMW, 2.5 μM ODN 2006 or 5 μg/mL imiquimod, respectively. GBZ was added at 50 μM. TLR activity was measured indirectly through SEAP activity as absorbance at 405 nm. […] Protein concentration of IFN-α and TNF-α secreted were measured at the indicated time points or at 16 h. […]
Given the efficiency of GBZ on mouse TLR3 and TLR9, we turned to human TLRs, in order to extend the relevance of our observations. GBZ-mediated inhibition was first evaluated on NF-kB signaling by monitoring secreted alkaline phosphatase (SEAP) reporter levels in HEK-293 cells expressing TLR3, TLR4, TLR7, TLR9 (FIG. 1B). […] The functionality of the TLR9 transduction pathway was next evaluated by using phospho-flow detection of 40S ribosomal protein S6 (rpS6) phosphorylation, a well characterized early signaling event down-stream of TLR activation by LPS or viruses.

In the case of `NC(N)=N/N=C/c1c(Cl)cccc1Cl` [GBZ, 2-(2,6-dichlorobenzylidene)-hydrazinecarboximidamide], the “TLR3-dependent activation of the SEAP reporter” value is reported as “inhibited”.
